Measurements taken from US8076487B2, “Pyridone derivative and herbicide” (Kumiai Chemical Industry Co., Ltd., priority 2006, dated 2011).

Key:
Type in all cases: in vivo
[1] = test system: barnyardgrass (Echinochloa crus-galli (L.) P. Beauv. var. crus-galli); experiment: Test Example 2: herbicidal effect by soil application to upland field; settings: soil surface spray, upland field soil, 1,000 g active ingredient per hectare, 21st day after application
Summary of the method: (§1)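 Pots of field soil, seeds sown and soil-covered; wettable powder diluted in water sprayed on soil at 1,000 g a.i./ha (1,000 L/ha). Greenhouse-grown; herbicidal effect rated per standard at 21 days post-application.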

[2] = test system: green foxtail (Setaria viridis (L.) P. Beauv.); experiment: as above; settings: soil surface spray, upland field soil, 1,000 g active ingredient per hectare, 21st day after application
Summary of the method: as §1

[3] = test system: velvetleaf (Abutilon theophrasti medicus); experiment: as above; settings: soil surface spray, upland field soil, 1,000 g active ingredient per hectare, 21st day after application
Summary of the method: as §1

[4] = test system: slender amaranth (Amaranthus viridis L.); experiment: as above; settings: soil surface spray, upland field soil, 1,000 g active ingredient per hectare, 21st day after application
Summary of the method: as §1

[5] = test system: early watergrass (Echinochloa oryzicola Vasing); experiment: Test Example 1: herbicidal effect by soil application to paddy field; settings: paddy field soil application; active ingredient 1,000 g per 1 hectare; wettable powder added dropwise to water surface the day after sowing; examined on the 21st day after application
Summary of the method: (§2)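 Plants were sown in flooded (3 cm) paddy soil and evaluated for herbicidal effect 21 days after soil application in a greenhouse.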

[6] = test system: heartshape false pickerelweed (Monochoria vaginalis (Burm.f.) C.Presl); experiment: as above; settings: paddy field soil application; active ingredient 1,000 g per 1 hectare; wettable powder added dropwise to water surface the day after sowing; examined on the 21st day after application
Summary of the method: as §2

[7] = test system: Japanese bulrush (Scirpus juncoides Roxb.); experiment: as above; settings: paddy field soil application; active ingredient 1,000 g per 1 hectare; wettable powder added dropwise to water surface the day after sowing; examined on the 21st day after application
Summary of the method: as §2

[8] = test system: barnyardgrass (Echinochloa crus-galli (L.) P. Beauv. var. crus-galli); experiment: Test Example 3: herbicidal effect by application to upland field (foliage treatment); settings: foliage treatment, plants grown two weeks, 1,000 g active ingredient per hectare, 14th day after application
Summary of the method: (§3)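 Upland foliage test in greenhouse pots of field soil: seedlings sprayed at two weeks post-sowing with 1,000 g/ha active ingredient (wettable powder, 1,000 L water/ha). Scored 14 d after application.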

[9] = test system: green foxtail (Setaria viridis (L.) P. Beauv.); experiment: as above; settings: foliage treatment, plants grown two weeks, 1,000 g active ingredient per hectare, 14th day after application
Summary of the method: as §3

[10] = test system: velvetleaf (Abutilon theophrasti medicus); experiment: as above; settings: foliage treatment, plants grown two weeks, 1,000 g active ingredient per hectare, 14th day after application
Summary of the method: as §3

[11] = test system: slender amaranth (Amaranthus viridis L.); experiment: as above; settings: foliage treatment, plants grown two weeks, 1,000 g active ingredient per hectare, 14th day after application
Summary of the method: as §3

Row | SMILES | herbicidal effect (index), Barnyardgrass [1] | herbicidal effect (index), Green Foxtail [2] | herbicidal effect (index), Velvetleaf [3] | herbicidal effect (index), Slender Amaranth [4] | herbicidal effect, Echinochloa oryzicola Vasing [5] | herbicidal effect, Monochoria vaginalis (Burm. f.) C. Presl [6] | herbicidal effect, Scirpus juncoides Roxb. [7] | herbicidal effect (index), Barnyardgrass [8] | herbicidal effect (index), Green Foxtail [9] | herbicidal effect (index), Velvetleaf [10] | herbicidal effect (index), Slender Amaranth [11]
1 | COc1ccccc1-n1c(C(F)(F)F)ccc(C(=O)C2=C(O)CCCC2=O)c1=O [I-76] | 5 (90% or more of herbicidal effect and crop phytotoxicity) | 5 (90% or more of herbicidal effect and crop phytotoxicity) | 5 (90% or more of herbicidal effect and crop phytotoxicity) | 5 (90% or more of herbicidal effect and crop phytotoxicity) | 5 (90% or more of herbicidal effect and crop phytotoxicity) | 5 (90% or more of herbicidal effect and crop phytotoxicity) | 5 (90% or more of herbicidal effect and crop phytotoxicity) | 5 (90% or more of herbicidal effect and crop phytotoxicity) | 3 (50 to less than 70% of herbicidal effect and crop phytotoxicity) | 5 (90% or more of herbicidal effect and crop phytotoxicity) | 5 (90% or more of herbicidal effect and crop phytotoxicity)
2 | O=C1CCCC(O)=C1C(=O)c1ccc(C(F)(F)F)n(-c2ccc(OC(F)(F)F)cc2)c1=O [I-79] | 5 (90% or more of herbicidal effect and crop phytotoxicity) | 5 (90% or more of herbicidal effect and crop phytotoxicity) | 5 (90% or more of herbicidal effect and crop phytotoxicity) | 5 (90% or more of herbicidal effect and crop phytotoxicity) | 5 (90% or more of herbicidal effect and crop phytotoxicity) | 5 (90% or more of herbicidal effect and crop phytotoxicity) | 5 (90% or more of herbicidal effect and crop phytotoxicity) | 5 (90% or more of herbicidal effect and crop phytotoxicity) | 5 (90% or more of herbicidal effect and crop phytotoxicity) | 5 (90% or more of herbicidal effect and crop phytotoxicity) | 5 (90% or more of herbicidal effect and crop phytotoxicity)
3 | CSc1cccc(-n2c(C(F)(F)F)ccc(C(=O)C3=C(O)CCCC3=O)c2=O)c1 [I-80] | 5 (90% or more of herbicidal effect and crop phytotoxicity) | 5 (90% or more of herbicidal effect and crop phytotoxicity) | 5 (90% or more of herbicidal effect and crop phytotoxicity) | 5 (90% or more of herbicidal effect and crop phytotoxicity) | 5 (90% or more of herbicidal effect and crop phytotoxicity) | 5 (90% or more of herbicidal effect and crop phytotoxicity) | 5 (90% or more of herbicidal effect and crop phytotoxicity) | 5 (90% or more of herbicidal effect and crop phytotoxicity) | 5 (90% or more of herbicidal effect and crop phytotoxicity) | 5 (90% or more of herbicidal effect and crop phytotoxicity) | 5 (90% or more of herbicidal effect and crop phytotoxicity)
4 | C[S+]([O-])c1cccc(-n2c(C(F)(F)F)ccc(C(=O)C3=C(O)CCCC3=O)c2=O)c1 (stereo not shown) [I-81] | 5 (90% or more of herbicidal effect and crop phytotoxicity) | 5 (90% or more of herbicidal effect and crop phytotoxicity) | 5 (90% or more of herbicidal effect and crop phytotoxicity) | 5 (90% or more of herbicidal effect and crop phytotoxicity) | 5 (90% or more of herbicidal effect and crop phytotoxicity) | 5 (90% or more of herbicidal effect and crop phytotoxicity) | 5 (90% or more of herbicidal effect and crop phytotoxicity) | 5 (90% or more of herbicidal effect and crop phytotoxicity) | 5 (90% or more of herbicidal effect and crop phytotoxicity) | 5 (90% or more of herbicidal effect and crop phytotoxicity) | 5 (90% or more of herbicidal effect and crop phytotoxicity)
5 | CS(=O)(=O)c1cccc(-n2c(C(F)(F)F)ccc(C(=O)C3=C(O)CCCC3=O)c2=O)c1 [I-82] | 5 (90% or more of herbicidal effect and crop phytotoxicity) | 5 (90% or more of herbicidal effect and crop phytotoxicity) | 5 (90% or more of herbicidal effect and crop phytotoxicity) | 5 (90% or more of herbicidal effect and crop phytotoxicity) | 5 (90% or more of herbicidal effect and crop phytotoxicity) | 5 (90% or more of herbicidal effect and crop phytotoxicity) | 5 (90% or more of herbicidal effect and crop phytotoxicity) | 5 (90% or more of herbicidal effect and crop phytotoxicity) | 5 (90% or more of herbicidal effect and crop phytotoxicity) | 5 (90% or more of herbicidal effect and crop phytotoxicity) | 5 (90% or more of herbicidal effect and crop phytotoxicity)
6 | CS(=O)(=O)c1ccc(-n2c(C(F)(F)F)ccc(C(=O)C3=C(O)CCCC3=O)c2=O)cc1 [I-83] | 5 (90% or more of herbicidal effect and crop phytotoxicity) | 5 (90% or more of herbicidal effect and crop phytotoxicity) | 5 (90% or more of herbicidal effect and crop phytotoxicity) | 5 (90% or more of herbicidal effect and crop phytotoxicity) | 5 (90% or more of herbicidal effect and crop phytotoxicity) | 5 (90% or more of herbicidal effect and crop phytotoxicity) | 5 (90% or more of herbicidal effect and crop phytotoxicity) | 5 (90% or more of herbicidal effect and crop phytotoxicity) | 5 (90% or more of herbicidal effect and crop phytotoxicity) | 5 (90% or more of herbicidal effect and crop phytotoxicity) | 5 (90% or more of herbicidal effect and crop phytotoxicity)
7 | O=C1CCCC(O)=C1C(=O)c1ccc(C(F)(F)F)n(-c2cccc(C(F)(F)F)c2)c1=O [I-85] | 5 (90% or more of herbicidal effect and crop phytotoxicity) | 5 (90% or more of herbicidal effect and crop phytotoxicity) | 5 (90% or more of herbicidal effect and crop phytotoxicity) | 5 (90% or more of herbicidal effect and crop phytotoxicity) | 5 (90% or more of herbicidal effect and crop phytotoxicity) | 5 (90% or more of herbicidal effect and crop phytotoxicity) | 5 (90% or more of herbicidal effect and crop phytotoxicity) | 5 (90% or more of herbicidal effect and crop phytotoxicity) | 5 (90% or more of herbicidal effect and crop phytotoxicity) | 5 (90% or more of herbicidal effect and crop phytotoxicity) | 5 (90% or more of herbicidal effect and crop phytotoxicity)
8 | O=C1CCCC(O)=C1C(=O)c1ccc(C(F)(F)F)n(-c2ccc(C(F)(F)F)cc2)c1=O [I-86] | 5 (90% or more of herbicidal effect and crop phytotoxicity) | 5 (90% or more of herbicidal effect and crop phytotoxicity) | 5 (90% or more of herbicidal effect and crop phytotoxicity) | 5 (90% or more of herbicidal effect and crop phytotoxicity) | 5 (90% or more of herbicidal effect and crop phytotoxicity) | 5 (90% or more of herbicidal effect and crop phytotoxicity) | 5 (90% or more of herbicidal effect and crop phytotoxicity) | 5 (90% or more of herbicidal effect and crop phytotoxicity) | 5 (90% or more of herbicidal effect and crop phytotoxicity) | 5 (90% or more of herbicidal effect and crop phytotoxicity) | 5 (90% or more of herbicidal effect and crop phytotoxicity)
